From patent publication US20050143291A1, “Methods and compositions for modulating apoptosis” (priority 2003, published 2005)

Legend:
Control cells = assay: % Survival (Colony Assay), control cells; type: cell-based
Description: (§1) Experiments were also performed to determine the anti-apoptotic effect conferred by overexpression of GRP78. This task was completed.
(§2) Clonogenic Survival Assays—Four thousand cells were seeded into 10-cm-diameter dishes. […] After drug treatment, the cells were grown in fresh medium for 10 to 14 days. The colonies were washed with ice-cold PBS, fixed with methanol, and stained with 10% Giemsa staining solution. The surviving fraction was determined by dividing the number of the surviving colonies in the drug-treated cells by the number of colonies in the non-treated control groups.

[1] = system: GRP78 Overexpression cells; assay: % Survival (Colony Assay), GRP78 overexpression; type: cell-based; conditions: for % Survival (Colony Assay): GRP78 Overexpression
Description: as §1, §2

CHO cells [2] = assay: Annexin V staining and FACS analysis, CHO cells; type: cell-based, Chinese hamster; conditions: 30 μM etoposide for 6 h
Excerpt: (§3) FIG. 3, Panel A depicts GRP78 overexpression protecting cells from etoposide-induced apoptosis. […] Viable cells are those with low annexin or no annexin and PI staining (lower left panel). Early stage apoptotic cells are represented by high annexin and low PI staining (lower right panel), later stage apoptotic cells represented by high annexin and high PI staining (upper right panel), and necrosis is represented by cells with high PI and low annexin staining (upper left panel).
(§4) Annexin V Staining and FACS Analysis—CHO, C.1, and T24/83 cells were trypsinized, washed twice with ice-cold PBS, pH 7.4, and resuspended in […] binding buffer (10 mM HEPES, pH 7.4, 140 mM NaCl, 2.5 mM CaCl2 at a concentration of 1×10^6 cells/ml. One hundred μl of cell suspension was transferred to 5-ml plastic tubes, and 5 μl of annexin V-fluorescein isothiocyanate (PharMingen) and 4 μl of 0.5 mg/ml PI were added. The cells were gently vortexed and incubated in the dark at room temperature for 20 min. Four hundred μl of binding buffer was added to each tube, and annexin V staining was analyzed by flow cytometry within 1 h. Cells negative for both PI and annexin V staining are live cells, annexin V positive staining cells are early apoptotic cells, and PI positive and annexin V positive staining cells are primarily cells in late stages of apoptosis.
(§5) The apoptotic cells were identified by annexin V labeling.

[3] = system: C.1 cells (CHO derivative overexpressing GRP78); assay: Annexin V staining and FACS analysis, C.1 cells; type: cell-based, Chinese hamster; conditions: 30 μM etoposide for 6 h
Excerpt: as §3, §4, §5

T24/83-pcDNA cells = assay: Annexin V staining and FACS analysis, T24/83-pcDNA cells; type: cell-based, human; conditions: versus non-treated
Description: as §4
(§6) A pair of stably transfected human transitional bladder carcinoma T24/83 cell lines selected and cultured under identical conditions, were used to determine the effect of GRP overexpression on neoplastic cells. The cell line, referred to as T24/83-GRP78, overexpressed human GRP78, and the other line, referred to as T24/83-pcDNA, was stably transfected with the empty expression vector pcDNA (28).

T24/83-GRP78 cells [4] = assay: Annexin V staining and FACS analysis, T24/83-GRP78 cells; type: cell-based, human; conditions: versus non-treated
Description: as §4, §6

endogenous GRP78 = assay: Immunoblot of endogenous GRP78 in MDA-MB-435 cells infected with 320 bp AS adenovirus, with or without etoposide; type: cell-based, human; conditions: mock-infected, etoposide treatment by itself
Description: The same cells were infected with the GFP negative control adenovirus. […] Thus, both the full length and the 320 bp version of the AS construct targeted against GRP78 blocked expression of GRP78 in a 293T test system.
Western Blotting—The cell lysate was prepared in radioimmune precipitation assay buffer and subjected to immunoblot with antibodies against GRP78, GRP94, topoisomerase II, caspase-7, and α-actin as described. Nitrocellulose membranes containing the transferred proteins were blocked in Tris-buffered saline containing 5% non-fat dry milk and 0.1% Tween 20 for 1 h at room temperature and were probed with the respective primary antibodies. For GRP78, an anti-KDEL mouse monoclonal antibody (SPA-827), an anti-GRP78 rabbit polyclonal antibody directed against the carboxyl ten amino acids of rat GRP78 (SPA-826) (StressGen, Victoria, Canada), or an anti-hamster GRP78 rabbit polyclonal antibody at 1:3000, 1:2000, and 1:5000 dilution, respectively, was used. […]

caspase-7 = assay: Caspase-7 activation in etoposide-treated CHO cells (Western blot); type: cell-based, Chinese hamster; conditions: 100 μM etoposide for 6 h, harvested after 24 h
Description: FIG. 5, Panel A depicts the effect of GRP78 overexpression on topoisomerase II expression and caspase-7 activation. Total protein lysates were prepared from non-treated (Ctrl) or etoposide-treated (Etop) CHO and C.1 cells.
Among the executor caspases, caspase-7 has been reported to be associated with the ER. Upon induction of apoptosis, procaspase-7 (35 kDa) is first converted into a 32-kDa intermediate, which is further processed into active 20- and 11-kDa subunits. […] Upon longer exposure of the autoradiogram, the active 20- and 11-kDa forms were evident in the etoposide-treated cells. When GRP78 was overexpressed, a low level of caspase-7 activation was detected in both the non-treated and etoposide-treated cells. […] In addition, upon addition of cytochrome c, caspase-7 activation was higher in CHO cells than C.1 cells, as evidenced by the increase in the active 20- and 11-kDa forms in the CHO samples compared with the C.1 samples.
The cells were suspended in 5 volumes of a hypotonic buffer (5 mM Tris-HCl, pH 7.4, 5 mM KCl, 1.5 mM MgCl2, 0.1 mM EGTA, pH 8.0, and 1 mM dithiothreitol) in the presence of 2 μg/ml leupeptin, pepstatin, and aprotinin protease inhibitors. After incubation on ice for 20 min, sucrose was added to a final concentration of 250 mM, and the cells were disrupted by douncing eight times in a 1-ml Wheaton Dounce homogenizer. […]

CHO cells [5] = assay: DNA fragmentation assay, CHO cells; type: cell-based, Chinese hamster; conditions: etoposide-treated CHO cells, compared with C.1 cells; 100 μM for 12 h, harvested after 48 h
Description: The DNA fragmentation assays were performed using an apoptosis DNA ladder kit (Roche Molecular Biochemicals) according to manufacturer's instructions.
as §5

T24/83-GRP78 cells [6] = assay: Clonogenic survival assays, T24/83 cells overexpressing GRP78; type: cell-based, human; conditions: versus T24/83-pcDNA cells
Description: as §2

COc1cc([C@@H]2c3cc4c(cc3[C@@H](O[C@@H]3O[C@@H]5CO[C@@H](C)O[C@H]5[C@H](O)[C@H]3O)[C@H]3COC(=O)[C@H]23)OCO4)cc(OC)c1O [Etoposide]
% Survival (Colony Assay) (Control cells; etoposide 0.2 μM): 71% | % Survival (Colony Assay) (Control cells; etoposide 0.4 μM): 67% | % Survival (Colony Assay) (Control cells; etoposide 0.8 μM): 26% | % Survival (Colony Assay) (Control cells; etoposide 1.6 μM): 1.5% | % Survival (Colony Assay) ([1]; etoposide 0.2 μM): 93% | % Survival (Colony Assay) ([1]; etoposide 0.4 μM): 93% | % Survival (Colony Assay) ([1]; etoposide 0.8 μM): 77% | % Survival (Colony Assay) ([1]; etoposide 1.6 μM): 63% | effect of GRP78 overexpression on sensitivity to the drug ([1]; GRP78 overexpression versus control): confers resistance | percentage of apoptotic cells (annexin V labeling) upon etoposide treatment (CHO cells [2]; non-treated 9%): 90% | increase of the percentage of apoptotic cells upon etoposide treatment (CHO cells [2]; versus non-treated): 10 fold | percentage of apoptotic cells (annexin V labeling) upon etoposide treatment ([3]; non-treated 15%): 70% | increase of the percentage of apoptotic cells upon etoposide treatment ([3]; versus non-treated): 4.7 fold | increase of the percentage of annexin V-labeled cells by etoposide treatment (T24/83-pcDNA cells): 2.7 fold | increase of the percentage of annexin V-labeled cells by etoposide treatment (T24/83-GRP78 cells [4]): 1.4 fold | reduction of the amount of endogenous GRP78 (endogenous GRP78): about 40% | caspase-7 activation (caspase-7): activation of caspase-7 | DNA fragmentation (CHO cells [5]): More extensive DNA fragmentation | resistance of T24/83 cells overexpressing GRP78 (clonogenic survival) (T24/83-GRP78 cells [6]): more resistance
